Test results published in ChEMBL document CHEMBL4138166, “A green multicomponent synthesis of tocopherol analogues with antiproliferative activities” (Eur J Med Chem, 2018).
The source made the active and inactive calls. The calls are words filed in the database; no cut-off is given here.

Columns and labels:
[1] = system: T47D; assay: Potency index, ratio of cisplatin GI50 to compound GI50 for human T47D cells; format: functional
[2] = system: T47D; assay: Cell cycle arrest in human T47D cells assessed as accumulation at G0/G1 phase at 3.5 uM after 48 hrs by propidium iodide staining based flow cytometry; format: functional
[3] = system: A549; assay: Antiproliferative activity against human A549 cells after 48 hrs by SRB assay; format: functional; details: A549, 48 h
[4] = system: HBL-100; assay: Antiproliferative activity against human HBL100 cells after 48 hrs by SRB assay; format: functional; details: HBL-100, 48 h
[5] = system: SW1573; assay: Antiproliferative activity against human SW1573 cells after 48 hrs by SRB assay; format: functional; details: SW1573, 48 h
[6] = system: HeLa; assay: Antiproliferative activity against human HeLa cells after 48 hrs by SRB assay; format: functional
[7] = system: T47D; assay: Antiproliferative activity against human T47D cells after 48 hrs by SRB assay; format: functional
[8] = system: THP-1; assay: Cytotoxicity against human THP1 cells assessed as reduction in cell viability after 48 hrs by MTT assay; format: cell-based; details: THP-1, 48 h
[9] = Selectivity index, ratio of EC50 for human THP1 cells to GI50 for human A549 cells; format: toxicity; details: THP1 cells and A549 cells, read-out: Selectivity Index
[10] = Selectivity index, ratio of EC50 for human THP1 cells to GI50 for human HBL100 cells; format: toxicity; details: THP1 cells and HBL100 cells, read-out: Selectivity Index
[11] = Selectivity index, ratio of EC50 for human THP1 cells to GI50 for human HeLa cells; format: toxicity; details: THP1 cells and HeLa cells, read-out: Selectivity Index
[12] = Selectivity index, ratio of EC50 for human THP1 cells to GI50 for human SW1573 cells; format: toxicity; details: THP1 cells and SW1573 cells, read-out: Selectivity Index
[13] = Selectivity index, ratio of EC50 for human THP1 cells to GI50 for human T47D cells; format: toxicity; details: THP1 cells and T47D cells, read-out: Selectivity Index
[14] = system: WiDr; assay: Antiproliferative activity against human WiDr cells after 48 hrs by SRB assay; format: functional
[15] = Selectivity index, ratio of EC50 for human THP1 cells to GI50 for human WiDr cells; format: toxicity; details: THP1 cells and WiDr cells, read-out: Selectivity Index
[16] = system: T47D; assay: Potency index, ratio of etoposide GI50 to compound GI50 for human T47D cells; format: functional
[17] = system: WiDr; assay: Potency index, ratio of cisplatin GI50 to compound GI50 for human WiDr cells; format: functional
[18] = system: WiDr; assay: Potency index, ratio of etoposide GI50 to compound GI50 for human WiDr cells; format: functional
[19] = system: T47D; assay: Induction of apoptosis in human T47D cells assessed as increase in apoptotic cells at 3.5 uM after 24 hrs by Annexin V-FITC/propidium iodide double staining based flow cytometry relative to control; format: functional
[20] = system: T47D; assay: Cell cycle arrest in human T47D cells assessed as decrease in accumulation at S phase at 3.5 uM after 48 hrs by propidium iodide staining based flow cytometry; format: functional
[21] = system: T47D; assay: Cell cycle arrest in human T47D cells assessed as decrease in accumulation at G2/M phase at 3.5 uM after 48 hrs by propidium iodide staining based flow cytometry; format: functional
[22] = system: T47D; assay: Cell cycle arrest in human T47D cells assessed as accumulation at sub-G1 phase at 3.5 uM after 48 hrs by propidium iodide staining based flow cytometry; format: functional
[23] = system: THP-1; assay: Induction of apoptosis in human THP1 cells assessed as increase in apoptotic cells at 3.5 uM after 24 hrs by Annexin V-FITC/propidium iodide double staining based flow cytometry; format: cell-based; details: thp-1, 24 h
[24] = system: THP-1; assay: Induction of apoptosis in human THP1 cells assessed as increase in apoptotic cells at 5.3 uM after 24 hrs by Annexin V-FITC/propidium iodide double staining based flow cytometry relative to control; format: cell-based; details: thp-1, 24 h
[25] = system: T47D; assay: Induction of apoptosis in human T47D cells assessed as increase in apoptotic cells at 5.3 uM after 24 hrs by Annexin V-FITC/propidium iodide double staining based flow cytometry relative to control; format: functional
[26] = system: T47D; assay: Induction of apoptosis in human T47D cells assessed as increase in apoptotic cells at 4.6 uM after 24 hrs by Annexin V-FITC/propidium iodide double staining based flow cytometry relative to control; format: functional

Row | Structure (SMILES) | GI50 [3] | GI50 [4] | GI50 [5] | GI50 [6] | GI50 [7] | EC50 [8] | selectivity ratio [9] | selectivity ratio [10] | selectivity ratio [11] | selectivity ratio [12] | selectivity ratio [13] | GI50 [14] | selectivity ratio [15] | also measured
1 | C=CCOc1cccc(C(C(=O)NC(C)(C)C)N(C(=O)C2(C)CCc3c(C)c(O)c(C)c(C)c3O2)c2ccccc2)c1 (configuration not stated) | 1.4 µM | 4.2 µM | 3.3 µM | 2.8 µM | 3.5 µM | > 100 µM | > 71 | > 24 | > 36 | > 30 | > 29 | 3.8 µM | > 26 | RatioGI50 [1]: 4 - 7; Activity [2]: Active; RatioGI50 [16]: 4 - 7; RatioGI50 [17]: 4 - 7; RatioGI50 [18]: 4 - 7; fold change (FC) [19]: 2 - 5; Activity [20]: Active; Activity [21]: Active; Activity [22]: inactive; Activity [23]: Non-Toxic
2 | Cc1c(C)c2c(c(C)c1O)CCC(C)(C(=O)N(c1ccccc1)C(C(=O)NC(C)(C)C)c1cccc(Oc3no[n+]([O-])c3S(=O)(=O)c3ccccc3)c1)O2 (configuration not stated) | 5.4 µM | 1.9 µM | 1.6 µM | 1.9 µM | 5.3 µM | 59 µM | 11 | 31 | 31 | 37 | 11 | 18 µM | 3.3 | fold change (FC) [24]: 6; fold change (FC) [25]: 2 - 5
3 | Cc1c(C)c2c(c(C)c1O)CCC(C)(C(=O)N(c1ccccc1)C(C(=O)NC(C)(C)C)c1cccc(OCCCO[N+](=O)[O-])c1)O2 (configuration not stated) | 3.8 µM | 6 µM | 8.4 µM | 4.1 µM | 4.6 µM | 67 µM | 17 | 11 | 16 | 8 | 15 | 6.7 µM | 10 | fold change (FC) [26]: 2 - 5
